Experiment [1] concerns the target Tyrosine-protein phosphatase non-receptor type 5 (Homo sapiens, UniProt P54829). Description: PTPN5 enzyme inhibition – biochemical, fluorescence intensity, uHTS hits, confirmation (AID 602372). It is filed as functional. The settings on record: read-out: IC50_Mean.
Experiment [2] deals with T1, Polyadenylate-binding protein 1 (Homo sapiens, UniProt P11940). Description: MLLE binding blockers, Cy5 peptide tracer – biochemical, fluorescence polarization, Cy5-PAM2 peptide, secondary, miRNA deadenylation inhibitor project, dose response (AID 602260). It counts as functional. The settings on record: read-out: IC50_Mean.
T1 sequence (P11940 whole entry): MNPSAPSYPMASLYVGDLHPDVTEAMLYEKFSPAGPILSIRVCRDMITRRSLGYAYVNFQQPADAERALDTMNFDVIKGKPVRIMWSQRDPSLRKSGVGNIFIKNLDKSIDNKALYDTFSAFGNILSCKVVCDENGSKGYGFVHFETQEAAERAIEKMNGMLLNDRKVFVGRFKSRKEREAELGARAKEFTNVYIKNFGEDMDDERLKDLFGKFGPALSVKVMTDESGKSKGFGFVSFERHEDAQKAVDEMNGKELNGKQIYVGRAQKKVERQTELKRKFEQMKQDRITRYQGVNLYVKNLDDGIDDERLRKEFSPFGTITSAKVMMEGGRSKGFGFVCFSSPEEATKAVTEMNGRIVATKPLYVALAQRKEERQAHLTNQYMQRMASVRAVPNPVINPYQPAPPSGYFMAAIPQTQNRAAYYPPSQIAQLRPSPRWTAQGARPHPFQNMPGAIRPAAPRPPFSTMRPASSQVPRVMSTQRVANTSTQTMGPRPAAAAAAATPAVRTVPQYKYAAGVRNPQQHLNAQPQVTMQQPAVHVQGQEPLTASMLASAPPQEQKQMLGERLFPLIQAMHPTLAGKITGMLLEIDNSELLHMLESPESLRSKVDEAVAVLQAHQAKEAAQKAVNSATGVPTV
The target of experiment [3] is T2, Tyrosine-protein phosphatase non-receptor type 22 (Homo sapiens, UniProt Q9Y2R2).
T2 sequence (Q9Y2R2 whole entry): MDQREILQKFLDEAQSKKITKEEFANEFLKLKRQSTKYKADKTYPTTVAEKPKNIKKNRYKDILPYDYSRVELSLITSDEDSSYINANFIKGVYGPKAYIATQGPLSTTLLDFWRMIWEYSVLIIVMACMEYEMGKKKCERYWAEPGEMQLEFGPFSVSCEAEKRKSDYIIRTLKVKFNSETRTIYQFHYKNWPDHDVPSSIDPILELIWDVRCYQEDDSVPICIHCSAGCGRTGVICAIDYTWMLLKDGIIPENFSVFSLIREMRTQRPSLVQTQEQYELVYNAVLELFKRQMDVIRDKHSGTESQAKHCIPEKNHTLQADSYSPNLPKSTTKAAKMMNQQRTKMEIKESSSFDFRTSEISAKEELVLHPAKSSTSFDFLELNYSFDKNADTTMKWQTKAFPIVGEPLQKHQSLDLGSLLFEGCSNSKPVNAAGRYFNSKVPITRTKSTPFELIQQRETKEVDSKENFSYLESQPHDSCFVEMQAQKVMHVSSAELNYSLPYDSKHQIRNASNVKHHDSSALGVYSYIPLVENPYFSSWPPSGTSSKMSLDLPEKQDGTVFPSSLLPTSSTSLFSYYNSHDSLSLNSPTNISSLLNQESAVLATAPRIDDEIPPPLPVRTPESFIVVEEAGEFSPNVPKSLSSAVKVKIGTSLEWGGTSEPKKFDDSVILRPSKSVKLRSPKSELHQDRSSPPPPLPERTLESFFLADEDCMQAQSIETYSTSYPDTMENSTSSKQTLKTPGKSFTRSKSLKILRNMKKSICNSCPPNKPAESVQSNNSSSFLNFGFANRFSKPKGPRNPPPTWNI
Put plainly: lymphoid phosphatase LYP inhibitors – biochemical, selectivity assay for STEP inhibitor project, dose response (AID 624241). It counts as functional.

The target of experiment [4] is T1, Polyadenylate-binding protein 1. Description: MLLE domain peptide-binding blockers, IC50 – biochemical, fluorescence polarization, FITC-PAM2 peptide, dose response (AID 602259). It counts as functional. The settings on record: read-out: IC50_Mean. (Polarisation of emitted light reports the rotation of a fluorescent probe.)
Experiment [5] has as its target T3, Caspase-6 (Homo sapiens, UniProt P55212).
T3 sequence (P55212 whole entry): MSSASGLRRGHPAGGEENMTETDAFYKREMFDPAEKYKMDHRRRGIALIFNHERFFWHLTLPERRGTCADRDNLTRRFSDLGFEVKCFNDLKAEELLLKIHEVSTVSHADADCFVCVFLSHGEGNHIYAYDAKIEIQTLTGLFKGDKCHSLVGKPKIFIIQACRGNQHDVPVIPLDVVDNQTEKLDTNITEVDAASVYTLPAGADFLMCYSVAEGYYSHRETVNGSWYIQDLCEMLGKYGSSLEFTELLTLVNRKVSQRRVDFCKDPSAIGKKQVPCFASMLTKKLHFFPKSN
Put plainly: inhibition of CASP6 peptide cleavage – biochemical, VEID-R110 fluorescence, cherry-pick, dose response (AID 720632).

Experiment [6] addresses Tyrosine-protein phosphatase non-receptor type 11 (Homo sapiens, UniProt Q06124). Description: PTPN11 enzyme inhibitors – biochemical, selectivity assay for STEP inhibitor project, dose response (AID 602367). It is filed as functional. The settings on record: read-out: IC50_Mean.
The target of experiment [7] is Small ubiquitin-related modifier 1 (Homo sapiens, UniProt P63165). Description: SUMO1 protein interaction blockers, potency – biochemical, fluorescence polarization, uHTS hits, dose response (AID 624382). It counts as functional. The settings on record: read-out: IC50_Mean.
Chain of Small ubiquitin-related modifier 1 (P63165 whole entry): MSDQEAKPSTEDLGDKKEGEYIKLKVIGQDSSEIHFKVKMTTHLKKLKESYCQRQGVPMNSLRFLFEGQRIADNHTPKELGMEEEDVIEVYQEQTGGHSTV
The target in experiment [8] is Beta Lactamase (Pseudomonas aeruginosa, UniProt Q932Y6). Description: BLA reporter interference, concentration series – BLA reporter cells, FRET fluorescence, artefact control for TLR9-MyD88 binding inhibitor project, dose response (AID 588341).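 Note: cell based assay in CHO-K1 cells stably expressing beta-lactamase.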 It is filed as cell-based.
Chain of Beta Lactamase (Q932Y6 whole entry): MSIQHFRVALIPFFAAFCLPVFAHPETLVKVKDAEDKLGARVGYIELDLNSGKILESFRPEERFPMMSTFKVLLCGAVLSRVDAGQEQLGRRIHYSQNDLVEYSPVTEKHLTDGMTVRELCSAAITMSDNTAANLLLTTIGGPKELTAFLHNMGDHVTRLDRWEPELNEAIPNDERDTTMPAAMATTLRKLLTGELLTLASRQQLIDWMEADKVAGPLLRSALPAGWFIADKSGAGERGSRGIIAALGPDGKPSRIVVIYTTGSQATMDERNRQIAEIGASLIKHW
Experiment [9] addresses T4, Delta-type opioid receptor (Homo sapiens, UniProt P41143). Put plainly: HTS Image-Based Screen for Agonists of the DOR Receptor. [Related pubchem assays (depositor defined):AID1777, AID1786, AID2133]. It is filed as functional.
Experiment [10] concerns CHO. Description: CHO cell viability loss, potency – luminescence, cytotoxicity control for TLR9-MyD88 binding inhibitor project, dose response (AID 588339).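 Note: CHO cells stably coexpressing TLR9 and MyD88 fusions from primary screen; compound exposure lasted 48 hours before viability readout.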 It counts as functional, cell-based, hamster. The settings on record: Cricetulus griseus.
In experiment [11] the target is Fatty acid synthase (Homo sapiens, UniProt P49327). Description: inhibition of human FAS-TE enzyme activity – biochemical, kinetic fluorescence intensity, dose response (AID 624326).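 Note: rate of fluorescence rise from hydrolysis of a fluorogenic O-methyl fluorescein ester substrate.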 It counts as functional.
Experiment [12] concerns the target T4, Delta-type opioid receptor. Put plainly: HTS Image-Based Screen for Antagonists of the DOR Receptor. [Related pubchem assays (depositor defined):AID1777, AID1785, AID1786, AID2133]. It is filed as functional.
Experiment [13] concerns the target Kappa-type opioid receptor (Homo sapiens, UniProt P41145). It is filed as functional.
The target of experiment [14] is T5, Replicative DNA helicase DnaB (Mycobacterium tuberculosis, UniProt P9WMR3).
T5 sequence (P9WMR3 whole entry): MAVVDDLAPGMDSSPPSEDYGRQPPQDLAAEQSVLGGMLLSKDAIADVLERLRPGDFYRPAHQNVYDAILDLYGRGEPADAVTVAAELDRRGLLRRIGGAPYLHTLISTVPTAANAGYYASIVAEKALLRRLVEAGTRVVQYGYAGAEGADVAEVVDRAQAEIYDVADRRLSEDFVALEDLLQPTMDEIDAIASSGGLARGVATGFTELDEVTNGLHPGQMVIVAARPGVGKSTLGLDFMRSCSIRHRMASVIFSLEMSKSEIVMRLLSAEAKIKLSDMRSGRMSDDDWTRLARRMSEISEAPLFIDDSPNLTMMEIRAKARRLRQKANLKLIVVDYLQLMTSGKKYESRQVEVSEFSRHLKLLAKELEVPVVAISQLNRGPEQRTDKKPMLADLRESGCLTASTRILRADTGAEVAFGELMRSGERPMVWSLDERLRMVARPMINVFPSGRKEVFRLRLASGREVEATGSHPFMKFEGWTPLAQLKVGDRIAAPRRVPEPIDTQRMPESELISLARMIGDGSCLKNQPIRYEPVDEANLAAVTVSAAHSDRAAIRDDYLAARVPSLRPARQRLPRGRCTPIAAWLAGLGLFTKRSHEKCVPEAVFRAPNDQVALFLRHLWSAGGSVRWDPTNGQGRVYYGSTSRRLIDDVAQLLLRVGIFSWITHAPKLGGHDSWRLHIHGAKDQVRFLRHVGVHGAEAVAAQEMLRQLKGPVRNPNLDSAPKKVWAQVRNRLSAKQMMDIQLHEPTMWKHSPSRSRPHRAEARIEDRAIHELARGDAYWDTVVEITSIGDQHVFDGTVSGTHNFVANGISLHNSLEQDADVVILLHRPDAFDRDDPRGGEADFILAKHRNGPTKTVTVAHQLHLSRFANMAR
Description: DnaB intein splicing inhibitors, dose response, biochemical, cell-free fluorescence (AID 449749). It is filed as functional.

pIC50: −log10 of the molar value. Activity calls are given as the source filed them. Bounds are passed on as bounds.

T4 sequence (P41143 whole entry, the tested form may be a part): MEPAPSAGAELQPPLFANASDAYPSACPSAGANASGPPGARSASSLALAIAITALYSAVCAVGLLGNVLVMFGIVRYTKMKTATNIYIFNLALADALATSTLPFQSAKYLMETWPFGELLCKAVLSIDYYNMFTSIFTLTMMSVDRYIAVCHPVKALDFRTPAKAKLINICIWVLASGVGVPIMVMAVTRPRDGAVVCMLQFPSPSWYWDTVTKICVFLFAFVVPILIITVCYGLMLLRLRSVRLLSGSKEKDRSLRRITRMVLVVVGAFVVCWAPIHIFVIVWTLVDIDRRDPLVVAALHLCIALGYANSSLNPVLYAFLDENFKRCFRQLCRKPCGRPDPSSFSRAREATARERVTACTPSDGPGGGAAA
Chain of Tyrosine-protein phosphatase non-receptor type 5 (P54829 whole entry): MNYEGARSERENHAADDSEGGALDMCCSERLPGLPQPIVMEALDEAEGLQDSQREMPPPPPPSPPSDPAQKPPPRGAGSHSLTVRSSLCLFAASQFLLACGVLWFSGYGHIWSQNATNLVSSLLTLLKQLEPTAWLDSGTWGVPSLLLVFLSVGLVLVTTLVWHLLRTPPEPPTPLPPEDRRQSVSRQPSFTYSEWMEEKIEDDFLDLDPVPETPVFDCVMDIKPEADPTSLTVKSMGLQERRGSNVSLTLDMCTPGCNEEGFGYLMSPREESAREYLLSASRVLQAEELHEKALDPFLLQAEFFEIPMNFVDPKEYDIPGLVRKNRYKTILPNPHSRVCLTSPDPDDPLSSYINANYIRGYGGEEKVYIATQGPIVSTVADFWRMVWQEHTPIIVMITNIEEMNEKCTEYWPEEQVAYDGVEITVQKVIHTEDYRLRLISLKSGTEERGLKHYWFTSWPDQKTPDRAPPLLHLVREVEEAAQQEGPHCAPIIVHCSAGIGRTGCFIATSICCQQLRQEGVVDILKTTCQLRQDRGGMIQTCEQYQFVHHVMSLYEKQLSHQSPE
Chain of Tyrosine-protein phosphatase non-receptor type 11 (Q06124 whole entry): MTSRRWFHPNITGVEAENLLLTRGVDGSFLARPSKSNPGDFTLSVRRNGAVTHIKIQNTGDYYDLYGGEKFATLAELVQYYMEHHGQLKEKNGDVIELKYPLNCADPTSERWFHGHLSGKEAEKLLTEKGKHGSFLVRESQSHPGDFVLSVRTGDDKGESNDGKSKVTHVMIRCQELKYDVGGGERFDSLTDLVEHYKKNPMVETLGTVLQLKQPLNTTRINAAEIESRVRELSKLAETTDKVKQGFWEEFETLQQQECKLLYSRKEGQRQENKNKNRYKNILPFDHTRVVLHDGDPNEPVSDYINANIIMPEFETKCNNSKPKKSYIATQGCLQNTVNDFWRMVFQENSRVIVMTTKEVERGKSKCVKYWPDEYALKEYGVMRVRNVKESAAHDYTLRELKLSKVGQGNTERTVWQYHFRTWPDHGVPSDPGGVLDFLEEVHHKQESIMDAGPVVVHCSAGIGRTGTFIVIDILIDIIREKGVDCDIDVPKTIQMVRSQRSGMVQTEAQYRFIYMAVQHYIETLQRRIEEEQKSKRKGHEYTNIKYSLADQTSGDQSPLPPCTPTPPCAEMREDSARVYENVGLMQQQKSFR
Chain of Kappa-type opioid receptor (P41145 whole entry): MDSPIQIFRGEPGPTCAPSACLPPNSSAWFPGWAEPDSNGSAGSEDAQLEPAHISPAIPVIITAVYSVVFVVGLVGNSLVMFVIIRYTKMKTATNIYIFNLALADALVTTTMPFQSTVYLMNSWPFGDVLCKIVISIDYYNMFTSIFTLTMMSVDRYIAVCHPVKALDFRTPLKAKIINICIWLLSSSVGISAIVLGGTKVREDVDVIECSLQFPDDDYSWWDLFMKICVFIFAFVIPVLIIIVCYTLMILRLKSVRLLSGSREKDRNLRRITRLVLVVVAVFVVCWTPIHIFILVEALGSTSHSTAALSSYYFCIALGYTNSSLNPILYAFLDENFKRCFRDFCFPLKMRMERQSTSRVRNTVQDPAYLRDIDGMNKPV

As a reminder, the AC50 is the concentration at which the activity in the assay is half-maximal. For `O=S(=O)(O)c1cc(O)c2cc(Nc3ccccc3)ccc2c1`, the IC50 was 6.49 µM (active) in experiment [1]; > 66 µM (inactive) in [2]; 5.09 µM (active) in [3]; > 66 µM (inactive) in experiment [4]; 335 nM (active) in experiment [6]; > 66.6 µM (inactive) in experiment [7]. The AC50 in experiment [5] is 403 nM (active).
The EC50 is the concentration needed to bring the measured effect to its halfway point. The term pIC50 denotes the IC50 on a negative log10 scale, so that one unit is a factor of ten. Take `O=[N+]([O-])c1c(Nc2ccccc2O)cc(Cl)c2nonc12`: the IC50 in [8] was 18.4 µM (inactive); in experiment [10], 1.36 µM (active); in experiment [11] it was 7.45 µM (active); in experiment [12] it was 14.7 µM (inactive). Also, the EC50 in experiment [9] is > 32 µM (inactive). The compound further had a pIC50 in experiment [13] of 4.94. Further, in experiment [14], the AC50 is 2.19 µM (active).

These data come from ChEMBL document CHEMBL1201862, “PubChem BioAssay data set” (2004).
